Laboratory results taken from patent US6734168B2, “Endothelial monocyte activating polypeptide II: a mediator which activates host response” (The Trustees of Columbia University in the City of New York, priority 1993, dated 2004).
No end group written: not given here.

Key:
human PMNs [1] = experiment: PMN migration in microchemotaxis chambers; format: cell-based; design: key to PMN MIGRATION: (+) indicates the peptide induced PMN migration; (−) indicates the peptide did not induce PMN migration above levels seen in controls which contained no chemotactic stimulus; conditions: for Induction of PMN migration (chemotaxis): microchemotaxis chamber, 45 min at 37° C.; for PMN MIGRATION: peptides 100 pM in each case
Method: (§1) Assessment of mononuclear phagocyte (mononuclears) and polymorphonuclear leukocyte (PMN) migration. Human peripheral blood monocytes were isolated from the blood of normal healthy volunteers (30). Blood was centrifuged on Hisopaque 1077 (Sigma, St. Louis, Mo.), the mononuclear fraction was obtained, washed twice in Earle's balanced salt solution, resuspended in RPMI 1640 containing human serum (10%; Gemini, Calabasas, Calif.), plated on tissue culture dishes and incubated at 37° C. for 1-2 hrs. Nonadherent cells were removed by washing the plate twice with balanced salt solution, and adherent cells were harvested by incubation with calcium-magnesium free buffer containing EDTA (2 mM) for 15 min at 37° C., followed by extensive washing. PMNs were prepared by centrifugation over Hisopaque 1119 as per the manufacturer's protocol (Sigma). Chemotaxis assays were performed in microchemotaxis chamber (NeuroProbe, Bethesda, Md.) containing Nucleopore polycarbonate membranes (5 μm; Nucleopore, Pleasonton, Calif.). Mononuclears or PMNs were suspended in RPMI 1640 containing fetal bovine serum (1%) and 10^4 cells were added per well to the upper chamber. The chemotactic stimulus was added to the indicated chamber, and assays were performed in quadruplicate over a 3 hr or 45 min incubation period at 37° C., with mononuclear cells or PMNs, respectively, after which non-migrating cells were removed, membranes were fixed in methanol, migrating cells were visualized with Wright's stain. Cells in nine high-power fields were counted, and the mean and standard error of the mean (SEM) were determined.
(§2) Cell migration was studied by adding MPs or PMNs (10^4 cells/well) resuspended in RPMI 1640 with fetal calf serum (1%; Gemini) to the upper wells of a microchemotaxis chamber (Neuro Probe, Bethesda, Md.) containing Nucleopore polycarbonate membranes (5 μm, Nucleopore, Pleasanton Calif.), as described (7,29-30). The chemotactic stimulus was placed in the upper or lower chamber, as indicated, and cells were allowed to migrate for 3 hrs (for MPs) or 45 min (for PMNs) at 37° C. Following removal of non-migrating cells, membranes were fixed in methanol and migrating cells were visualized with Wright's stain. Assays were performed in quadruplicate, and cells were counted in nine high-power fields in each case (mean±SEM is shown in the figures).
(§3) Migration of PMNs and MPs—Migration was studied using cells (10^4 and 10^3 cells/well form PMNs and MPs, respectively) resuspended in RPMI 1640 with fetal calf serum (1%) added to the upper wells of a microchemotaxis chamber (Neuro Probe, Bethesda, Md.) containing Nucleopore polycarbonate membranes (5 um, Nucleopor, Pleasanton, Calif.), as described (13, 22, 35). The stimulus was placed in the upper or lower chamber, as indicated, and the cells were allowed to migrate for 3 h (for MPs) or 45 min (for PMNs) at 37° C. Following removal of nonmigrating cells, membranes were fixed in methanol, and migrating cells were visualized with Wright's stain. Assays were performed in quadruplicate, and cells were counted in […] high-power fields in each case (mean±S.E. is shown in the figures).

[2] = test system: human peripheral blood monocytes (MPs); experiment: Mononuclear phagocyte migration in microchemotaxis chambers; format: cell-based; conditions: microchemotaxis chamber, 3 hrs at 37° C.
Method: as §1, §2, §3

human MPs [3] = experiment: Radioligand binding of 125I-[…] to MPs; conditions: for Competition for binding of 125I-RIGRIVTAKY to MPs by unlabelled peptide/protein: excess / increasing concentrations of unlabelled competitor
Method: Radioligand binding studies were performed on human MPs plated in 96-well plates (5-6×10^4 cells/well). Cells were washed twice with Hanks balanced salt solution, and then Dulbecco's Modified Eagle Medium containing HEPES (25 mM; pH 7.4), penicillin/streptomycin (50 U/ml; 50 μg/ml), and bovine serum albumin-fatty acid free (0.5%; Sigma) were added (0.1 ml/well). Cultures were incubated at 4° C. for 2 hrs with ^125I-[…] alone or in the presence of unlabelled peptide/protein. Each well was washed four times over a period of 20 sec, and cell-associated radioactivity was eluted by an acidic buffer (HCl, 0.1 M, pH 2; NaCl, 0.1 M) at 4° C. for 5 min. During the elution period, there was no detachment of cells from the growth substrate. The conditions for incubation and washing used in the binding studies shown in FIG. 3 (2 hrs at 4° C.) were […] to allow binding of ^125I-[…] to reach an apparent maximum, even at the lowest tracer concentrations, and to remove unbound material by washing quickly so that <10% of the cell-bound radioactivity dissociated.

human PMNs [4] = experiment: [Ca2+]i measurement in PMNs (fura-2); format: cell-based
Method: (§4) [Ca^2+1]i measurements. PMNs or MPs (2×10^7 cells in each case) were incubated with fura-2 AM (1 μM) and pluronic detergent (0.02%) for 12 min at room temperature, diluted sixfold, and incubated for a further 30 min at room temperature to allow for complete hydrolysis of the dye. Cells were then resuspended in HEPES-buffered saline at 5×10^5 cells/ml (32). For experiments using MPs, sulfinpyrazone (0.5 mM) was included at all steps to minimize both dye sequestration into intracellular organelles and dye efflux (33). Fluorescence of fura-2 was monitored at 37° C. in a thermostatically-controlled cuvette installed in a Perkin Elmer Model 650-40 fluorescense spectrophotometer. Calibration of [Ca^2+]i was performed as described (34).
(§5) For determination of [Ca^2+] in PMSs and MPs, cells (2×10^7 in each case) were incubated with fura-2 AM (1 um) and pluronci detergent (0.02%) at room temperature, diluted 6-fold, and incubated for a further 30 min at room temperature to allow for complete hydrolysis of the dye. Cells were then resuspended in HEPES-buffered saline at 5×10^5 cells/ml (32). For MPs, sulfinpyrazone (0.5 mM) was included at all steps to minimize both dye sequestration into intracellular organelles and dye efflux (33). Fluorescence of fura-2 was monitored at 37° C. in a thermostatically controlled cuvette installed in a Perkin Elmer model 650-40 fluorescence spectrophotometer. Calibration of [Ca^2+] was performed as described (34).

ECs = experiment: Pilot binding studies using ECs; conditions: data not shown
human MPs [5] = experiment: [Ca2+]i measurement in MPs (fura-2); format: cell-based
Method: as §4
as §5, with “Calibration of [Ca^2+] was performed as described (34).” left out

| Competition for binding of 125I-RIGRIVTAKY to MPs by unlabelled peptide/protein (human MPs [3]) | Substance | PMN MIGRATION (human PMNs [1]) | other results |
| --- | --- | --- | --- |
|  | IRKDMDKVETFLRIVQ [irrelevant peptide derived from growth hormone, reference compound] |  | Induction of PMN migration (chemotaxis) (human PMNs [1]): no chemotaxis was observed; Induction of MP (mononuclear cell) migration (chemotaxis) [2]: inactive |
| inhibition | RICRIVTAK |  |  |
| had no effect | RIGRAVT | − |  |
|  | AVLPRSAKELRL [peptide derived from the ELR-region of IL-8, residues #23-34, reference compound] |  | Induction of PMN migration (chemotaxis) (human PMNs [1]): no chemotaxis was observed; Induction of MP (mononuclear cell) migration (chemotaxis) [2]: inactive |
| had no effect | CRAQTMANSGIK [peptide derived from the C-terminal portion of EMAP II, reference compound] |  | Induction of PMN migration (chemotaxis) (human PMNs [1]): no chemotaxis was observed; Induction of MP (mononuclear cell) migration (chemotaxis) [2]: inactive |
|  | ASRLDLRIGC*IVTAK | + |  |
|  | RIGRIIT | + |  |
|  | ASRLDLRIGRIVTAK | + |  |
|  | RIGRIVTAKY | + | Rise in [Ca2+]i in PMNs (human PMNs [4]): did not promote enhanced [Ca^2+]i |
| blocked | ASRLDLRTGRIVT |  |  |
|  | AIGRIVT | + |  |
| had no effect | ASRLDL | − | Rise in [Ca2+]i in PMNs (human PMNs [4]): inactive |
|  | 125I-RIGRIVTAKY (also: 125I label) |  | N, binding sites (human MPs [3]; 4° C.): 8.3±1.2×10^3 molecules of peptide bound per cell; Kd (human MPs [3]; read-out: Kd of specific binding to MPs (one-site model), 4° C.): 0.19 ± 0.11 nM; Specific binding to ECs (ECs): specific binding |
| blocked | RIGRIVT | + | Rise in [Ca2+]i in PMNs (human PMNs [4]): did not promote enhanced [Ca^2+]i; Rise in [Ca2+]i in MPs (human MPs [5]): insufficient to promote increases in [Ca^2+]i |
|  | LRIGRIVTAKY | + |  |
